# Reference: patent US20210220376A1, “ADDICTION TREATMENT OF AN ALCOHOL-CONSUMING PATIENT POPULATION” (Amygdala Neurosciences, Inc., priority 2018, published 2021)
# Test system: healthy male alcohol drinkers
# Assay: Phase 1 single-ascending-dose study of compound (2) coadministered with ethanol: safety
# Assay type: in vivo, human
# Description: This was a single-center, randomized, double-blind, placebo-controlled, single-ascending-dose cohort study to evaluate the safety and tolerability of the coadministration of up to 6 dose levels of compound (2) (25 mg, 50 mg, 100 mg, 200 mg, 400 mg and 600 mg) and EtOH in healthy male alcohol drinkers.
# Within 27 days of the medical screening visit, subjects were enrolled and attended an inpatient Qualification Phase in which they received up to 5 standard drinks (14 grams of EtOH each; oral solution of vodka containing 40% [v/v] EtOH, mixed with a non-carbonated beverage, one drink every 30 minutes) to evaluate their tolerance to repeat administration to ensure they could safely tolerate the planned EtOH treatment. A minimum washout interval of 44 hours was performed between initiation of the last EtOH administration in the Qualification Phase and study drug administration in the Treatment Phase.
# Following qualification, eligible subjects were enrolled and randomized to receive compound (2) or placebo in a 3:1 fashion in each of 6 cohorts (8 subjects per cohort). As a safety precaution, no more than 4 subjects were administered study drug on any given day. Planned compound (2) dose levels included doses of 25 mg, 50 mg, 100 mg, 200 mg, 400 mg, and 600 mg. Study drug administration occurred approximately 1 hour following ingestion of a standardized (moderate-fat) meal. Approximately 2 hours after receiving the study drug, subjects began a session of repeat EtOH administration, during which they could receive up to 5 doses of EtOH (14 grams each, approximately 1 standard drink) every 30 minutes, or until a stopping criterion applied. Safety assessments, pharmacodynamic assessments and pharmacokinetic blood sample collections were obtained up to 48 hours post-dose. Subjects were discharged after 48-hour post-dose procedures were completed and the investigator deemed it safe to do so. Subjects returned for the safety follow-up visit approximately 7 (±2) days following discharge from the Treatment Phase or after early discontinuation from the study.
# The primary endpoints included frequency and severity of adverse events (AEs), ethanol reaction (ER) scores and flushing, laboratory values, vital signs, and electrocardiograms (ECGs).
# Subjects' ER scores and flushing were summarized descriptively by timepoint, category and treatment. In addition, flushing, ER heat sensation and ER palpitation were compared between each of the active doses and placebo using a mixed-effect model for repeated measures (MMRM) analysis with treatment, visit, and treatment by visit as fixed effects and baseline as a covariate. The actual value was used as the dependent variable and visit included pre-EtOH, 30 minutes, 60 minutes, 90 minutes, 120 minutes, 150 minutes and 3 hours relative to the first EtOH administration in Treatment Phase. The variance-covariance matrix was assumed to be unstructured. […] Results were presented as least square means (LSMEANS), treatment differences in LSMEANS, 95% confidence intervals (CI) and p-values.
# Vital signs measurements (respiratory rate, systolic and diastolic blood pressure, and heart rate) were summarized by treatment and visit. Heart rate and diastolic blood pressure were also compared between each of the active doses and placebo using an MMRM analysis with treatment, visit, and treatment by visit as fixed effects and baseline as a covariate.
# Twelve-lead ECG results were summarized by timepoint and treatment, and frequencies (numbers and percentages) were calculated for the overall evaluation. Concomitant medications, clinical laboratory evaluations (raw data and change from baseline, as applicable) and physical examination findings were listed.
# [1] = 200 mg, 135 min after first EtOH
# [2] = 400 mg, 15 min after first EtOH
# [3] = 400 mg, 45 min after first EtOH
# [4] = 400 mg, 75 min after first EtOH
# [5] = 400 mg, 105 min after first EtOH
# [6] = 400 mg, 135 min after first EtOH
# [7] = 600 mg, 15 min after first EtOH
# [8] = 600 mg, 45 min after first EtOH
# [9] = 600 mg, 75 min after first EtOH
# [10] = 600 mg, 105 min after first EtOH
# [11] = 600 mg, 135 min after first EtOH
# [12] = Overall (N = 36), 15 min after first EtOH
# [13] = Overall (N = 36), 45 min after first EtOH
# [14] = Overall (N = 36), 75 min after first EtOH
# [15] = Overall (N = 36), 105 min after first EtOH
# [16] = Overall (N = 36), 135 min after first EtOH
compound,measurement,setting,value
"O=C(NCc1ccc(-c2ccn(COP(=O)(O)O)c(=O)c2)cc1)c1c(Cl)cccc1Cl [Compound (2), phosphoric acid mono-(4-{4-[(2,6-dichloro-benzoylamino)-methyl]-phenyl}-2-oxo-2H-pyridin-1-ylmethyl) ester]","Diastolic Blood Pressure, Mean",[1],69.3 mmHg
same,"Heart Rate, Mean",[1],96.2 beats/min
same,"Systolic Blood Pressure, Mean",[1],124.0 mmHg
same,"Diastolic Blood Pressure, Mean","200 mg, Pre-EtOH",73.8 mmHg
same,"Heart Rate, Mean","200 mg, Pre-EtOH",60.2 beats/min
same,"Systolic Blood Pressure, Mean","200 mg, Pre-EtOH",119.8 mmHg
same,subjects with TEAE of sinus tachycardia,"200 mg, after EtOH",three
same,subjects with TEAE of tachycardia,"200 mg, after EtOH",one
same,subjects with TEAE of tachypnea,"200 mg, after EtOH",One
same,"QTcF Interval, Aggregate, Mean","200 mg, prior to initiation of repeat EtOH administration session",400.2 ms
same,subjects reporting a TEAE,400 mg,100%
same,"Diastolic Blood Pressure, Mean",[2],71.3 mmHg
same,"Systolic Blood Pressure, Mean",[2],112.8 mmHg
same,"Diastolic Blood Pressure, Mean",[3],71.8 mmHg
same,"Heart Rate, Mean",[3],81.2 beats/min
same,"Systolic Blood Pressure, Mean",[3],120.0 mmHg
same,"QTcF Interval, Aggregate, Mean","400 mg, 1 hour after initiation of repeat EtOH administration session",394.8 ms
same,"Diastolic Blood Pressure, Mean",[4],70.5 mmHg
same,"Heart Rate, Mean",[4],82.7 beats/min
same,"Systolic Blood Pressure, Mean",[4],119.3 mmHg
same,"Diastolic Blood Pressure, Mean",[5],72.2 mmHg
same,"Heart Rate, Mean",[5],86.2 beats/min
same,"Systolic Blood Pressure, Mean",[5],118.5 mmHg
same,"Diastolic Blood Pressure, Mean",[6],71.0 mmHg
same,"Heart Rate, Mean",[6],83.7 beats/min
same,"Systolic Blood Pressure, Mean",[6],118.8 mmHg
same,"Diastolic Blood Pressure, Mean","400 mg, Pre-EtOH",71.7 mmHg
same,"Heart Rate, Mean","400 mg, Pre-EtOH",61.2 beats/min
same,"Systolic Blood Pressure, Mean","400 mg, Pre-EtOH",115.3 mmHg
same,"QTcF Interval, Aggregate, Mean","400 mg, prior to initiation of repeat EtOH administration session",396.7 ms
same,subjects reporting a TEAE,600 mg,83.3%
same,"Diastolic Blood Pressure, Mean",[7],75.0 mmHg
same,"Systolic Blood Pressure, Mean",[7],122.3 mmHg
same,"Diastolic Blood Pressure, Mean",[8],75.0 mmHg
same,"Heart Rate, Mean",[8],85.2 beats/min
same,"Systolic Blood Pressure, Mean",[8],127.3 mmHg
same,"QTcF Interval, Aggregate, Mean","600 mg, 1 hour after initiation of repeat EtOH administration session",394.3 ms
same,"Diastolic Blood Pressure, Mean",[9],74.2 mmHg
same,"Heart Rate, Mean",[9],91.8 beats/min
same,"Systolic Blood Pressure, Mean",[9],130.2 mmHg
same,"Diastolic Blood Pressure, Mean",[10],72.0 mmHg
same,"Heart Rate, Mean",[10],91.8 beats/min
same,"Systolic Blood Pressure, Mean",[10],126.8 mmHg
same,"Diastolic Blood Pressure, Mean",[11],74.8 mmHg
same,"Heart Rate, Mean",[11],92.3 beats/min
same,"Systolic Blood Pressure, Mean",[11],127.7 mmHg
same,"Diastolic Blood Pressure, Mean","600 mg, Pre-EtOH",75.2 mmHg
same,"Heart Rate, Mean","600 mg, Pre-EtOH",61.2 beats/min
same,"Systolic Blood Pressure, Mean","600 mg, Pre-EtOH",120.2 mmHg
same,"QTcF Interval, Aggregate, Mean","600 mg, prior to initiation of repeat EtOH administration session",393.8 ms
same,deaths or serious adverse events,25-600 mg oral with up to 5 doses of EtOH (14 g each),no deaths or serious adverse events
same,"Diastolic Blood Pressure, Mean",[12],74.0 mmHg
same,"Systolic Blood Pressure, Mean",[12],118.8 mmHg
same,"Diastolic Blood Pressure, Mean",[13],73.4 mmHg
same,"Heart Rate, Mean",[13],76.6 beats/min
same,"Systolic Blood Pressure, Mean",[13],122.0 mmHg
same,"QTcF Interval, Aggregate, Mean","Overall (N = 36), 1 hour after initiation of repeat EtOH administration session",401.1 ms
same,"Diastolic Blood Pressure, Mean",[14],72.5 mmHg
same,"Heart Rate, Mean",[14],82.9 beats/min
same,"Systolic Blood Pressure, Mean",[14],122.3 mmHg
same,"Diastolic Blood Pressure, Mean",[15],71.3 mmHg
same,"Heart Rate, Mean",[15],85.3 beats/min
same,"Systolic Blood Pressure, Mean",[15],121.7 mmHg
same,"Diastolic Blood Pressure, Mean",[16],72.8 mmHg
same,"Heart Rate, Mean",[16],82.5 beats/min
same,"Systolic Blood Pressure, Mean",[16],121.3 mmHg
same,"Diastolic Blood Pressure, Mean","Overall (N = 36), Pre-EtOH",73.4 mmHg
same,"Heart Rate, Mean","Overall (N = 36), Pre-EtOH",59.3 beats/min
same,"Systolic Blood Pressure, Mean","Overall (N = 36), Pre-EtOH",117.3 mmHg
same,"QTcF Interval, Aggregate, Mean","Overall (N = 36), prior to initiation of repeat EtOH administration session",399.4 ms
same,changes in diastolic blood pressure compared with placebo,after EtOH administration,no significant changes
same,changes in systolic blood pressure compared with placebo,after EtOH administration,no significant changes
same,subjects reporting a TEAE,all compound (2)-treated subjects,88.9%
same,incidence of flushing and feeling hot compared with placebo,all doses,higher
same,compound (2)-treated subjects who did not consume all 5 EtOH administrations due to TEAEs,"all doses, N = 36",5.6%
same,flushing,all other doses (50-600 mg),observed
same,tolerability,all treatments,generally well tolerated
same,ER subjective assessment compared with placebo,"heat sensation, palpitations",more likely to report feeling heat sensation and feeling palpitations
